Measured values reported in patent US20260374766A1, “METHODS FOR TREATING CANCER” (Antares Therapeutics, Inc., priority 2022, published 2026).
Read-outs that look alike come from different tables or passages of the source.

Experiments:
p53 Y220C = p53 Y220C (Homo sapiens, UniProt P04637, Y220C); assay: Luciferase Reporter Assay (Luc), p53 response element, NClH1299 cells with inducible p53 Y220C; assay type: cell-based; details: 6 hour; for AC50: read-out: Luc P53 Y220C AC50
Description: Luciferase Reporter Assay Protocol
The cells were then used for p53 reporter assay. 5,000 cells were seeded in each well of 384 plate and cultured in 0.5 ug/mL doxycycline (D3072; Sigma) containing medium for 24 hours before compound treatment. After 6 hour of compound treatment, equal volume of One-Glo reagent (E6110; Promega) was added to each well and the plate was incubated for 5 minutes with shaking at room temperature. The luciferase activity was immediately measured with PheraStar microplate reader.

NUGC3 p53 Y220C = assay: Cell Proliferation Assay (CellTiter-Glo, CTG), NUGC3 p53 Y220C; assay type: cell-based; details: Homo sapiens, NUGC-3, 120 h, 5 days
Description: (§1) Inducible p53 Y220C and R273H constructs (Tet-One inducible expression system; Takara) were stably expressed in NClH1299 cells by lentiviral transduction. NUGC3, A549, BxPC3, T3M4, HuH7, HCC2935, MFE296, NClH1299, NClH1299-inducible p53 Y220C, and NClH1299-inducible p53 R273H cell lines were used for cell proliferation assay. 250-500 cells were seeded in each well of 384 plate and then compounds were dispensed into each well using Echo or Tecan. After 5 days of incubation, equal volume of CellTiter-Glo reagent (G7570; Promega) was added into each well and the plate was incubated at room temperature for 10 minutes with shaking. The luminescent signal was measured by PheraStar microplate reader and IC50 was calculated.

H1299 p53 Y220C = assay: Cell Proliferation Assay (CellTiter-Glo, CTG), H1299 p53 Y220C (NClH1299-inducible p53 Y220C); assay type: cell-based; details: Homo sapiens, NCI-H1299, 120 h, 5 days
Description: as §1

H1299 p53 R273H = assay: Cell Proliferation Assay (CellTiter-Glo, CTG), H1299 p53 R273H (NClH1299-inducible p53 R273H); assay type: cell-based; details: Homo sapiens, NCI-H1299, 120 h, 5 days
Description: as §1

[1] = target: T1, p53 Y220C mutant protein (amino acid residues 94-293) (Homo sapiens, UniProt P04637, Y220C); assay: Surface Plasmon Resonance (SPR) assay, Kd_kinetic; assay type: binding; details: SPR, p53 Y220C, read-out: SPR P53 Y220C KD kinetic
T1 construct: p53 Y220C mutant protein (amino acid residues 94-293)
T1 sequence (P04637 94-293, stated change not applied): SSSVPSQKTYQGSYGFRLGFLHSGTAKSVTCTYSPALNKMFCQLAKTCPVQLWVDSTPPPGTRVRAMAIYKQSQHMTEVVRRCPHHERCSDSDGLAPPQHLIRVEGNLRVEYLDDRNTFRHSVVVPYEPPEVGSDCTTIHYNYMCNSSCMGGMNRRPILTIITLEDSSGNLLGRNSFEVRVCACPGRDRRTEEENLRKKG
Description: Surface Plasmon Resonance (SPR) Assay Protocol
SPR experiments were performed on a Biacore 8K instrument. […] The running buffer contained 50 mM Tris, pH 7.5, 100 mM NaCl, 1 mM DTT, 0.01% Brij35, 0.05% Tween-20 and 1% DMSO. The assay temperature was maintained at 16 or 20 °C and data were fit into the 1:1 binding model using the Biacore Insight Evaluation software.

[2] = Emax, luciferase reporter, NClH1299 inducible p53 Y220C
[3] = NClH1299-inducible p53 Y220C cells, CellTiter-Glo
[4] = NClH1299-inducible p53 R273H cells, CellTiter-Glo
[5] = AC50, NClH1299 cells with inducible p53 Y220C
[6] = Emax, NClH1299 cells with inducible p53 Y220C, 10 uM tool compound as positive control
[7] = NClH1299-inducible p53 Y220C cells
[8] = NClH1299-inducible p53 R273H cells
[9] = luciferase reporter, NClH1299 inducible p53 Y220C, 10 uM tool compound as positive control
[10] = luciferase reporter, NClH1299 inducible p53 Y220C

Work on CNC(=O)c1ccc(NCC#Cc2nc3c(N[C@@H]4C[C@H]5COC[C@H](N5)[C@@H]4F)cccn3c2SC(F)(F)F)c(OC)c1 (relative stereo) [Example 251, rel-4-{[3-(8-{[(1R,5R,6S,7S)-6-fluoro-3-oxa-9-azabicyclo [3.3.1]nonan-7-yl]amino}-3-[(trifluoromethyl)sulfanyl]imidazo[1,2-a]pyridin-2-yl)prop-2-yn-1-yl]amino}-3-methoxy-N-methylbenzamide] yielded an Emax (p53 Y220C; [2]) of 80 to 90%, an IC50 (NUGC3 p53 Y220C; NUGC3 cells, CellTiter-Glo) of 1.5 to 3 µM and an IC50 (H1299 p53 Y220C; [3]) of 1.5 to 3 µM. For the same compound, the IC50 (H1299 p53 R273H; [4]) was ≥ 10 µM.
For CNC(=O)c1ccc(NCC#Cc2nc3c(NC4CCS(=O)(=O)C4)cccn3c2SC(F)(F)F)c(OC)c1 (single isomer, unassigned) [Example 322], the Kd [1] was 0.01 to 0.1 µM, the AC50 (p53 Y220C; AC50, luciferase reporter, NClH1299 inducible p53 Y220C) was 0.75 to 1.5 µM and the Emax (p53 Y220C; [2]) was > 90%. The IC50 (NUGC3 p53 Y220C; NUGC3 cells, CellTiter-Glo) was 0.75 to 1.5 µM, the IC50 (H1299 p53 Y220C; [3]) was 0.75 to 1.5 µM and the IC50 (H1299 p53 R273H; [4]) was ≥ 10 µM.
With CNC(=O)c1ccc(OC)c(NCC#Cc2cc3c(N[C@@H]4CCN(CC(C)O)C[C@@H]4F)cccn3c2SC(F)(F)F)c1 (single isomer, unassigned) [Example 480, 3-{[3-(8-{[(3S,4R)-3-fluoro-1-[(2R*)-2-hydroxypropyl]piperidin-4-yl]amino}-3-[(trifluoromethyl)sulfanyl]indolizin-2-yl)prop-2-yn-1-yl]amino}-4-methoxy-N-methylbenzamide] the Kd [1] was < 0.01 µM, the AC50 (p53 Y220C; [5]) was < 0.75 µM and the Emax (p53 Y220C; [6]) was > 90%. The IC50 (NUGC3 p53 Y220C; NUGC3 cells) was < 0.75 µM, the IC50 (H1299 p53 Y220C; [7]) was < 0.75 µM and the IC50 (H1299 p53 R273H; [8]) was 8 to 10 µM.
CNC(=O)c1cc(NCC#Cc2cc3c(N[C@H]4CCN(C)C[C@H]4F)cccn3c2SC(F)(F)F)c2nccn2c1 (stereo in doubt) [Example 503, 8-{[3-(8-{[(3R,4S)-3-fluoro-1-methylpiperidin-4-yl]amino}-3-[(trifluoromethyl)sulfanyl]indolizin-2-yl)prop-2-yn-1-yl]amino}-N-methylimidazo[1,2-a]pyridine-6-carboxamide] was tested, and the Kd [1] was < 0.01 µM, the AC50 (p53 Y220C; [5]) was < 0.75 µM and the Emax (p53 Y220C; [6]) was > 90%. The IC50 (NUGC3 p53 Y220C; NUGC3 cells) was < 0.75 µM, the IC50 (H1299 p53 Y220C; [7]) was < 0.75 µM and the IC50 (H1299 p53 R273H; [8]) was 5 to 8 µM.
With CNC(=O)c1cc(OC)c(NCC#Cc2nc3c(N[C@@H]4CCN(C)C[C@@H]4F)cccn3c2SC(F)(F)F)cn1 [Example 120] the Kd ([1]; kinetic KD) was < 0.01 µM, the Emax (p53 Y220C; [9]) was 80 to 90% and the AC50 (p53 Y220C; [10]) was < 0.75 µM. The IC50 (NUGC3 p53 Y220C; CellTiter-Glo, NUGC3 p53 Y220C) was < 0.75 µM, the IC50 (H1299 p53 Y220C; CellTiter-Glo, H1299 p53 Y220C) was < 0.75 µM and the IC50 (H1299 p53 R273H; CellTiter-Glo, H1299 p53 R273H) was ≥ 10 µM.
In the case of CNS(=O)(=O)c1ccc(OC)c(NCC#Cc2cc3c(N[C@@H]4CCN(C)C[C@@H]4F)cccn3c2SC(F)(F)F)c1 [Example 132, 3-{[3-(8-{[(3S,4R)-3-fluoro-1-methylpiperidin-4-yl]amino}-3-[(trifluoromethyl)sulfanyl]indolizin-2-yl)prop-2-yn-1-yl]amino}-4-methoxy-N-methylbenzenesulfonamide], the Kd ([1]; kinetic KD) is reported as < 0.01 µM, the Emax (p53 Y220C; [9]) is reported as 80 to 90% and the AC50 (p53 Y220C; [10]) is reported as < 0.75 µM. For the same compound, the IC50 (NUGC3 p53 Y220C; CellTiter-Glo, NUGC3 p53 Y220C) was < 0.75 µM, the IC50 (H1299 p53 Y220C; CellTiter-Glo, H1299 p53 Y220C) was < 0.75 µM and the IC50 (H1299 p53 R273H; CellTiter-Glo, H1299 p53 R273H) was 5 to 8 µM.
For CNC(=O)c1ccc(N[C@H](C)C#Cc2nc3c(N[C@@H]4CCN(C)C[C@@H]4F)cccn3c2SC(F)(F)F)c(OC)c1 [Example 133], the Kd ([1]; kinetic KD) was 0.01 to 0.1 µM, the Emax (p53 Y220C; [9]) was > 90% and the AC50 (p53 Y220C; [10]) was > 3 µM. The IC50 (NUGC3 p53 Y220C; CellTiter-Glo, NUGC3 p53 Y220C) was > 3 µM, the IC50 (H1299 p53 Y220C; CellTiter-Glo, H1299 p53 Y220C) was > 3 µM and the IC50 (H1299 p53 R273H; CellTiter-Glo, H1299 p53 R273H) was 5 to 8 µM.
For CNC(=O)c1ccc(N[C@@H](C)C#Cc2nc3c(N[C@@H]4CCN(C)C[C@@H]4F)cccn3c2SC(F)(F)F)c(OC)c1 [Example 134], the Kd ([1]; kinetic KD) was 0.01 to 0.1 µM, the Emax (p53 Y220C; [9]) was 70 to 80% and the AC50 (p53 Y220C; [10]) was > 3 µM. The IC50 (NUGC3 p53 Y220C; CellTiter-Glo, NUGC3 p53 Y220C) was > 3 µM, the IC50 (H1299 p53 Y220C; CellTiter-Glo, H1299 p53 Y220C) was > 3 µM and the IC50 (H1299 p53 R273H; CellTiter-Glo, H1299 p53 R273H) was 5 to 8 µM.
For CNC(=O)c1ccc(NCC#Cc2nc3c(N[C@@H]4C[C@H]5COC[C@@H]([C@@H]4F)N5C)cccn3c2SC(F)(F)F)c(OC)c1 [Example 137], the Kd ([1]; kinetic KD) was 0.01 to 0.1 µM, the Emax (p53 Y220C; [9]) was < 70% and the AC50 (p53 Y220C; [10]) was > 3 µM. The IC50 (NUGC3 p53 Y220C; CellTiter-Glo, NUGC3 p53 Y220C) was > 3 µM, the IC50 (H1299 p53 Y220C; CellTiter-Glo, H1299 p53 Y220C) was > 3 µM and the IC50 (H1299 p53 R273H; CellTiter-Glo, H1299 p53 R273H) was ≥ 10 µM.
With CNC(=O)c1ccnc(NCC#Cc2nc3c(N[C@@H]4CCN(C)C[C@@H]4F)cccn3c2SC(F)(F)F)c1 [Example 150] the Emax (p53 Y220C; [9]) was < 70%, the AC50 (p53 Y220C; [10]) was > 3 µM and the IC50 (NUGC3 p53 Y220C; CellTiter-Glo, NUGC3 p53 Y220C) was > 3 µM. The IC50 (H1299 p53 Y220C; CellTiter-Glo, H1299 p53 Y220C) was > 3 µM and the IC50 (H1299 p53 R273H; CellTiter-Glo, H1299 p53 R273H) was ≥ 10 µM.
